Laboratory results as given in PubChem BioAssay AID1963836 (Molecular Pharmacology Branch, DTP, NCI, 2024).

Tested on: 857933-349-R-J2-PDC complex spheroid viability
Assay: Anticancer human tumor 857933-349-R-J2-PDC patient-derived colon adenocarcinoma cell line growth inhibition [POLQ]
Conditions: for IC50: curve of first compound; for viability, T/C: stronger effect = lower value; active = viability on the fitted dose curve at most 10% of control; inactive = the rest
Description: Multicellular complex tumor spheroid response to Polymerase (POL) inhibitors (novobiocin, ART-558, RP6685) in combination with a variety of drugs and investigational agents in selected tumor cell lines
The POL inhibitors (novobiocin, ART-558, and RP6685) were evaluated both individually and in combination with standard of care and investigational anticancer small molecules within a complex spheroid model of solid tumors. . Complex spheroids include a stromal component modeled by human endothelial cells (HUVEC) and fibroblasts modeled by human mesenchymal stem cells (MSCs). The concentration ranges selected for each drug and investigational agent were based upon clinically achievable concentrations if the clinical Cmax of the agent was known.
Compounds. The drugs and investigational agents: novobiocin (NSC847541), ART-558 (NSC835418), RP-6685 (NSC848927), peposertib (NSC802822), ceralasertib (NSC780249), elimusertib (NSC800525), camonsertib (NSC841442), AZD-1390 (NSC803789), olaparib (NSC753686), talazoparib (NSC767125), rucaparib (NSC756644), sotorasib (NSC818433), MRTX-1133 (NSC836407), SN-38 (NSC673596), topotecan (NSC609699), epotoside (NSC141540), doxorubicin (NSC123127), gemcitabine (NSC613327), 5-fluorouracil (NSC19893), paclitaxel (NSC125973), vemurafenib (NSC761431), MSA-2 (NSC828583), SN-011 (NSC837082), adavosertib (NSC754352), prexasertib (NSC758257), carboplatin (NSC241240) and oxaliplatin (NSC266046), were obtained from the National Cancer Institute (NCI) Developmental Therapeutics Program Chemical Repository (21). The FDA-approved anticancer drug set is available from the Developmental Therapeutics Program at https://dtp.cancer.gov/organization/dscb/obtaining/. […] The stock solutions were prepared in dimethyl sulfoxide (DMSO, Sigma-Aldrich, St. Louis, MO, cat. D2650), except for the platinum compounds which were prepared in saline (Quality Biological, Gaithersburg, MD, cat. 114-055-101), at 800-fold the tested concentration and stored at -70 degrees C prior to their use. All drugs and investigational agents were tested over a range starting from a high concentration at or near the clinical Cmax and decreasing in half-log increments. If the clinical Cmax for an agent had not been determined, the highest concentration tested was 10 microM, except for SN-38, which was tested at a high concentration of 1 microM.
Cell Culture. All cells were maintained in an incubator at 37 degrees C and 5% CO2 with 95% humidity. The PDC lines were cultured according to standard operating procedures established by the NCI PDMR (https://pdmr.cancer.gov). Table 3 of the manuscript, lists the cell lines along with the number of the three cell types plated to form the mct-spheroids and media for tumor cell growth. After thawing, all PDC lines, except 997537-175-T-J1-PDC and 415267-285-R-J2-PDC, were cultured in Matrigel-coated flasks prepared with a working solution of 1X Ham's F-12 nutrient mix, without supplementation (Thermo Fisher Scientific, cat. 11765054), 100 U/mL penicillin-streptomycin (Thermo Fisher Scientific, cat. 15140122), and 2.5% Matrigel (Corning Inc., Corning, NY, cat. 354248) for the first three passages. The two PDC lines 997537-175-T-J1-PDC and 415267-285-R-J2-PDC were cultured on uncoated flasks. The 857933-349-R-J2-PDC line was cultured in 6C/Colon 1B media containing advanced DMEM/F-12 (Thermo Fisher Scientific, cat. 12634028), 10 mM HEPES (Thermo Fisher Scientific, cat. 15630080), 1X GlutaMAX supplement (Thermo Fisher Scientific, cat. 35050061), 0.1 mg/mL primocin (InvivoGen, San Diego, CA, cat. ant-pm-2), 10% defined fetal bovine serum, heat inactivated (HyClone Laboratories Inc., Logan, UT, cat. SH30070.03HI), 50% L-WRN conditioned media (ATCC, cat. CRL-3276), 1.25 mM N-Acetyl-L-cysteine (Sigma-Aldrich, cat. A9165), 10 mM nicotinamide (Sigma-Aldrich, cat. N0636), 1X B-27 supplement (Thermo Fisher Scientific, cat. 17504044), 1X N-2 supplement (Thermo Fisher Scientific, cat. […]

[1] = second compound 0.0316 µM, first compound 0.0316 µM
[2] = second compound 0.0316 µM, first compound 0.1 µM
[3] = second compound 0.1 µM, first compound 0.0316 µM
[4] = second compound 0.1 µM, first compound 0.1 µM
[5] = second compound 0.316 µM, first compound 0.0316 µM
[6] = second compound 0.316 µM, first compound 0.1 µM
[7] = second compound 1 µM, first compound 0.0316 µM
[8] = second compound 1 µM, first compound 0.1 µM
[9] = second compound 3.16 µM, first compound 0.0316 µM
[10] = second compound 3.16 µM, first compound 0.1 µM
[11] = second compound 10 µM, first compound 0.0316 µM
[12] = second compound 10 µM, first compound 0.1 µM
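Also: spheroids exposed to compounds for seven days before readout.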

Cn1ncnc1[C@H]1c2n[nH]c(=O)c3cc(F)cc(c23)N[C@@H]1c1ccc(F)cc1 + Nc1ccc(C#CCN(C(=O)Cc2ncc(C(F)(F)F)cc2C(F)(F)F)c2ccc(F)cc2)nn1
inactive: viability, T/C (second compound 0.0316 µM, first compound 0.000316 µM) 90.9% | viability, T/C (second compound 0.0316 µM, first compound 0.001 µM) 83.9% | viability, T/C (second compound 0.0316 µM, first compound 0.00316 µM) 80.7% | viability, T/C (second compound 0.0316 µM, first compound 0.01 µM) 90% | viability, T/C [1] 95% | viability, T/C [2] 85.1% | viability, T/C (second compound 0.1 µM, first compound 0.000316 µM) 92.7% | viability, T/C (second compound 0.1 µM, first compound 0.001 µM) 92.7% | viability, T/C (second compound 0.1 µM, first compound 0.00316 µM) 94% | viability, T/C (second compound 0.1 µM, first compound 0.01 µM) 104% | viability, T/C [3] 103% | viability, T/C [4] 91.5% | viability, T/C (second compound 0.316 µM, first compound 0.000316 µM) 104% | viability, T/C (second compound 0.316 µM, first compound 0.001 µM) 101% | viability, T/C (second compound 0.316 µM, first compound 0.00316 µM) 97% | viability, T/C (second compound 0.316 µM, first compound 0.01 µM) 105% | viability, T/C [5] 75% | viability, T/C [6] 97.6% | viability, T/C (second compound 1 µM, first compound 0.000316 µM) 105% | viability, T/C (second compound 1 µM, first compound 0.001 µM) 85.8% | viability, T/C (second compound 1 µM, first compound 0.00316 µM) 86% | viability, T/C (second compound 1 µM, first compound 0.01 µM) 97.5% | viability, T/C [7] 93.9% | viability, T/C [8] 93.6% | viability, T/C (second compound 3.16 µM, first compound 0.000316 µM) 86.2% | viability, T/C (second compound 3.16 µM, first compound 0.001 µM) 80.2% | viability, T/C (second compound 3.16 µM, first compound 0.00316 µM) 93.5% | viability, T/C (second compound 3.16 µM, first compound 0.01 µM) 98% | viability, T/C [9] 111% | viability, T/C [10] 94.2% | viability, T/C (second compound 10 µM, first compound 0.000316 µM) 84.8% | viability, T/C (second compound 10 µM, first compound 0.001 µM) 82.1% | viability, T/C (second compound 10 µM, first compound 0.00316 µM) 98.3% | viability, T/C (second compound 10 µM, first compound 0.01 µM) 92.2% | viability, T/C [11] 93.2% | viability, T/C [12] 61.7%
> 0.1 µM: IC50 (second compound 0.0316 µM) | IC50 (second compound 0.1 µM) | IC50 (second compound 0.316 µM) | IC50 (second compound 1 µM) | IC50 (second compound 3.16 µM) | IC50 (second compound 10 µM)

O=c1[nH]cc(F)c(=O)[nH]1 + Nc1ccc(C#CCN(C(=O)Cc2ncc(C(F)(F)F)cc2C(F)(F)F)c2ccc(F)cc2)nn1
2.28 µM: IC50 (second compound 1 µM)
2.15 µM: IC50 (second compound 0.0316 µM)
2.13 µM: IC50 (second compound 0.1 µM)
2.33 µM: IC50 (second compound 3.16 µM)
inactive: viability, T/C [1] 101% | viability, T/C [2] 98.7% | viability, T/C (second compound 0.0316 µM, first compound 0.316 µM) 100% | viability, T/C (second compound 0.0316 µM, first compound 1 µM) 83.4% | viability, T/C (second compound 0.0316 µM, first compound 3.16 µM) 33.1% | viability, T/C (second compound 0.0316 µM, first compound 10 µM) 25.1% | viability, T/C [3] 102% | viability, T/C [4] 93.5% | viability, T/C (second compound 0.1 µM, first compound 0.316 µM) 93.3% | viability, T/C (second compound 0.1 µM, first compound 1 µM) 75.2% | viability, T/C (second compound 0.1 µM, first compound 3.16 µM) 36.5% | viability, T/C (second compound 0.1 µM, first compound 10 µM) 22.7% | viability, T/C [5] 106% | viability, T/C [6] 120% | viability, T/C (second compound 0.316 µM, first compound 0.316 µM) 97.2% | viability, T/C (second compound 0.316 µM, first compound 1 µM) 84.4% | viability, T/C (second compound 0.316 µM, first compound 3.16 µM) 39.2% | viability, T/C (second compound 0.316 µM, first compound 10 µM) 23.3% | viability, T/C [7] 106% | viability, T/C [8] 103% | viability, T/C (second compound 1 µM, first compound 0.316 µM) 97.5% | viability, T/C (second compound 1 µM, first compound 1 µM) 81.6% | viability, T/C (second compound 1 µM, first compound 3.16 µM) 37.2% | viability, T/C (second compound 1 µM, first compound 10 µM) 22.4% | viability, T/C [9] 105% | viability, T/C [10] 106% | viability, T/C (second compound 3.16 µM, first compound 0.316 µM) 91% | viability, T/C (second compound 3.16 µM, first compound 1 µM) 83.3% | viability, T/C (second compound 3.16 µM, first compound 3.16 µM) 37.2% | viability, T/C (second compound 3.16 µM, first compound 10 µM) 21.5% | viability, T/C [11] 95.7% | viability, T/C [12] 87.1% | viability, T/C (second compound 10 µM, first compound 0.316 µM) 92.7% | viability, T/C (second compound 10 µM, first compound 1 µM) 87.5% | viability, T/C (second compound 10 µM, first compound 3.16 µM) 31.8% | viability, T/C (second compound 10 µM, first compound 10 µM) 27.8%
2.45 µM: IC50 (second compound 0.316 µM)
2.17 µM: IC50 (second compound 10 µM)
